Patent US20060004088A1, “Furan derivatives for preventing and curing osteoporosis and pharmaceutical compositions containing the same” (OCT INC., priority 2002, published 2006)

System: osteoclast pregenitor cells
Experiment: Inhibition rates of furan derivatives versus osteoclast formation (TRAP staining)
Assay type: cell-based, mice
Conditions: TRAP-positive multinucleated cells, untreated control set as 100%
Experimental: First, bone marrow cells were isolated, as follow. After sacrificing 7-9 week female mice by cervical dislocation, femur and tibia were excised aseptically while removing attached soft tissues. After cutting both ends of long bones, 1 ml of an enzyme solution, containing 0.1% collagenase (Gibco), 0.05% trypsin and 0.5 mM EDTA (Gibco), was injected to the bone marrow cavity at one end using a syringe with a 26-guage needle, and bone marrow was then collected. After shaking the recovered bone marrow for 30 min, bone marrow cells were collected, and cultured in α-minimum essential medium (α-MEM) supplemented with 10% FBS for 24 hrs. Then, non-adherent cells were collected, which are osteoclast pregenitors, aliquotted onto culture plates at a density of 2×10^5 cells per well, and cultured for 8 days in α-MEM supplemented with 20 ng/ml of macrophage-colony stimulating factor (M-CSF, Peprotech, USA) and 30 ng/ml RANKL (Peprotech, USA). During the 8 days of culturing, the cells were treated with the Compound 1. Thereafter, osteoclast formation was investigated by fixing the cultured cells and then carrying out TRAP staining, as described in the following Experimental Example 2.2. In addition, resorption activity of osteoclasts was investigated by measuring the absorption area after removing osteoclasts in cultures in calcium phosphate-coated plates, as described in Experimental Example 2.3, below.
After cell culture, the adherent cells were washed with PBS, and TRAP staining was performed, as follows. After being fixed with citrate-acetate-formaldehyde for 5 min, the cells were incubated for 1 hr in acetate buffer (prewarmed at 37° C., pH 5.0) containing naphthol AS-BI phosphate, fast Garnet GBC and 7 mM tartrate buffer (pH 5.0). TRAP-positive multinucleated cells having 3 or more nuclei were considered as osteoclasts.
Osteoclast pregenitor cells were isolated, and their differentiation to mature osteoclasts was induced, according to the same method as in the Experimental Example 2-1, while treated with each of the furan derivatives of the present invention. According to the same method as in the Experimental Example 2-2, TRAP staining performed, and TRAP-positive multinucleated cells were counted. An inhibition rate of each furan derivative against osteoclast formation was expressed as percentage, wherein the number of stained cells in a control not treated the furan derivative was arbitrarily set as 100% (Tables 14 to 16).

In the case of COC(=O)c1ccc(COc2ccc(Cl)cc2[N+](=O)[O-])o1 [Compound 66], the “Inhibition rate against osteoclast formation, %” value (from here on “Inhibition rate … %”) (0.1 μM) is reported as 0%, the “Inhibition rate … %” value (1 μM) is reported as 0% and the “Inhibition rate … %” value (10 μM) is reported as 13.58%.

In the case of COC(=O)c1ccc(COc2ccccc2[N+](=O)[O-])o1 [Compound 67], the “Inhibition rate … %” value (0.1 μM) is reported as 0%, the “Inhibition rate … %” value (1 μM) is reported as 0% and the “Inhibition rate … %” value (10 μM) is reported as 15.92%.

In the case of COC(=O)c1ccc(COc2cc(C)ccc2C(C)C)o1 [Compound 68], the “Inhibition rate … %” value (0.1 μM) is reported as 0% and the “Inhibition rate … %” value (1 μM) is reported as 0%.

With COC(=O)c1ccc(COc2ccc3c(c2)CCC3)o1 [Compound 70] the “Inhibition rate … %” value (0.1 μM) was 0%, the “Inhibition rate … %” value (1 μM) was 0% and the “Inhibition rate … %” value (10 μM) was 3.34%.

With COC(=O)c1ccc(COc2ccc(Cl)c(C)c2)o1 [Compound 75] the “Inhibition rate … %” value (0.1 μM) was 0%, the “Inhibition rate … %” value (1 μM) was 0% and the “Inhibition rate … %” value (10 μM) was 0.78%.

For COC(=O)c1ccc(COc2ccc(I)cc2)o1 [Compound 79], the “Inhibition rate … %” value (0.1 μM) was 0%, the “Inhibition rate … %” value (1 μM) was 0% and the “Inhibition rate … %” value (10 μM) was 34.65%.

With COC(=O)c1ccc(COc2ccc(Cl)cc2)o1 [Compound 80] the “Inhibition rate … %” value (0.1 μM) was 0%, the “Inhibition rate … %” value (1 μM) was 0% and the “Inhibition rate … %” value (10 μM) was 15.19%.

With COC(=O)c1ccc(CN(C)C)o1 [Compound 85] the “Inhibition rate … %” value (0.1 μM) was 0%, the “Inhibition rate … %” value (1 μM) was 0% and the “Inhibition rate … %” value (10 μM) was 3.75%.

With COC(=O)c1ccc(CNc2ccccc2)o1 [Compound 89] the “Inhibition rate … %” value (0.1 μM) was 0%, the “Inhibition rate … %” value (1 μM) was 0% and the “Inhibition rate … %” value (10 μM) was 12.6%.

COC(=O)c1ccc(CNC(C)(C)C)o1 [Compound 91] was tested, and the “Inhibition rate … %” value (0.1 μM) was 0%, the “Inhibition rate … %” value (1 μM) was 0% and the “Inhibition rate … %” value (10 μM) was 9.89%.

With COc1ccccc1OCc1ccc(C(=O)OC(C)C)o1 [Compound 94] the “Inhibition rate … %” value (0.1 μM) was 0%, the “Inhibition rate … %” value (1 μM) was 0% and the “Inhibition rate … %” value (10 μM) was 5.9%.

In the case of CC(C)OC(=O)c1ccc(COc2cc(Cl)ccc2Cl)o1 [Compound 95], the “Inhibition rate … %” value (0.1 μM) is reported as 0%, the “Inhibition rate … %” value (1 μM) is reported as 0% and the “Inhibition rate … %” value (10 μM) is reported as 0.97%.

For COc1ccccc1OCc1ccc(C(=O)Oc2ccc(Cl)cc2)o1 [Compound 97], the “Inhibition rate … %” value (0.1 μM) was 0%, the “Inhibition rate … %” value (1 μM) was 0% and the “Inhibition rate … %” value (10 μM) was 12.75%.

O=C(Oc1ccccc1)c1ccc(COc2ccccc2Cl)o1 [Compound 98] was tested, and the “Inhibition rate … %” value (0.1 μM) was 0%, the “Inhibition rate … %” value (1 μM) was 0% and the “Inhibition rate … %” value (10 μM) was 9.89%.

CCCc1ccc(OCc2ccc(C(=O)O)o2)cc1 [Compound 100] was tested, and the “Inhibition rate … %” value (0.1 μM) was 0%, the “Inhibition rate … %” value (1 μM) was 0% and the “Inhibition rate … %” value (10 μM) was 10.46%.

For O=C(O)c1ccc(COc2ccc(F)cc2)o1 [Compound 102], the “Inhibition rate … %” value (0.1 μM) was 0%, the “Inhibition rate … %” value (1 μM) was 0% and the “Inhibition rate … %” value (10 μM) was 5.05%.

O=C(O)c1ccc(COc2ccc(Br)cc2)o1 [Compound 103] was tested, and the “Inhibition rate … %” value (0.1 μM) was 0%, the “Inhibition rate … %” value (1 μM) was 0% and the “Inhibition rate … %” value (10 μM) was 2.77%.

With O=C(O)c1ccc(COc2ccccc2Cl)o1 [Compound 107] the “Inhibition rate … %” value (0.1 μM) was 0%, the “Inhibition rate … %” value (1 μM) was 0% and the “Inhibition rate … %” value (10 μM) was 32%.

For O=C(O)c1ccc(COc2ccccc2Br)o1 [Compound 108], the “Inhibition rate … %” value (0.1 μM) was 0%, the “Inhibition rate … %” value (1 μM) was 0% and the “Inhibition rate … %” value (10 μM) was 14.72%.

With O=C(O)c1ccc(COc2cc(Cl)ccc2Cl)o1 [Compound 109] the “Inhibition rate … %” value (0.1 μM) was 0%, the “Inhibition rate … %” value (1 μM) was 0% and the “Inhibition rate … %” value (10 μM) was 3.25%.
